Results from US10822383B2, “Polypeptides capable of producing glucans having alpha-1,2 branches and use of the same” (E I DU PONT DE NEMOURS AND COMPANY, priority 2015, dated 2020).

B1: GTFJ18T1: N-terminal-truncated form of GTFJ18 (first 1664 residues removed), SEQ ID NO:27 (protein)
chain: VKGDKRTIDGVLYTFDKESGERKGLDSISVLPTNGQYTTDKAQNWYYQVDGENVKGLYTNNDGQLRYFDLTTGVQTKGNFVTIGNDTYYFTKEQGDGQIVSEVVSGHYGTVQLSDNSSAWVYRGANDQILKGLQNINGRLQYFDLTTGAQLKGGAANYDGNLYYFESSDGNLVSKIQQSYSTGNYVTDGDKVTYADEQNNQVTGLALIDDQLQYFDPSDGRQVKNEQVIVDGVTYYFDKNGNGQYLFTNTATMSTNEFAKHSAAYSNDSSSFKNTIDGFLTADTWYRPKDILENGQTWVVSSTNDVRPLITVWWLNKDVQVNYSNFMKQNGLLDTSSQFNLQSDQYDLNVAAQKVQVAIEKRISKEKSTDWLKDLLFEAHEDTPSFVKQQFIWNKDSEYQGQGDAWFQGGYLKYGNNELTPTTNSDYRESGNTLDFLLANDVDNSNPAVQAENLNWLHYLMNFGTITANDDDANFDSIRIDAVDFIDNDAIQRTYDYMRDAYKVDASEDNANKHISLVEAGLDAGTSTIKSDALVESNFREAATLSLANQSGENSSLTNMLQDIDGGQIIADHANNATENESTPNYSIIHAHDKGIQEKVGAAITDVTGADWTNFTDDQLKEGLAAYYQDQRSTNKKYNIYNLPSIYALMLTNKDTVPRVYYGDMYQDDGQYMEKQSIYYDAIVSLMNTRKSYVSGGQTMDVDEHGLLKSVRFGKDAMTASDLGTNETRTEGVGVLVGNDSSLKLNDSDTVTLEMGAAHKNQKYRAALLTTSDGIVTYDADNDAPTIWTDDRGTLTFSNKEIAGQDYTSVQGFANSQVSGYLAVWVPVGASDDQDVRTAALTDANLDDKVLHSNAALDSNLIYEGFSNFQPKATTNDELTNVVIAKNANLFEKWGITSFEMAPQYRSSGDHTFLDSTIDNGYAFTDRYDLGFETPTKYGTDKDLRTAIKALHQSNMQVMADVVDNQVYNLSGQEVVSASRAGVYGNDVSTGFGTQLYAVNSVGGGKYQAQYGGEYLNELKQQYPDLFEAKTYDYWVKNYSNDGSDPYYTLSQNTRKDMPSSEVIKQWSAKYMNGTNVLGNGMGYVLKDWNTGEYFKIGEKNADFITN
modifications: Leuconostoc mesenteroides

Experiments:
[1] = Alpha-1,2 branching reaction with GTF9905 on products of the GTF8117 reaction; type: biochemical; conditions: 1.13 U/mL GTF9905, 175 g/L sucrose, 30° C., 76.2 h
Method: First, a reaction was performed to prepare glucan that was used in the second part of this Example as a substrate for 1,2-branching enzyme. A reaction mixture (20 mL) comprised of sucrose (488 g/L) and GTF8117 (Example 4, 9.4 U/mL) was adjusted to pH 5.5 with 6.0 N hydrochloric acid and stirred at 47° C. Aliquots were withdrawn at predetermined times and quenched by heating at 90° C. for 20 min. The resulting heat-treated aliquots were centrifuged and the supernatants analyzed by HPLC to determine the concentration of sucrose, glucose, fructose, leucrose, oligosaccharides and polysaccharides. After 6 h, the reaction mixture was heated to 90° C. for 30 minutes, and an aliquot of the heat-treated reaction mixture was centrifuged and the resulting supernatant analyzed for soluble monosaccharides, oligosaccharides and polysaccharides (DP8+) (Table 1). The DP8+ polysaccharides appeared to contain about 100% alpha-1,6 linkages.
A second reaction was then performed to conduct alpha-1,2 branching from the products of the first reaction. […] The resulting heat-treated aliquots were centrifuged and the supernatants analyzed by HPLC to determine the concentration of sucrose, glucose, fructose, leucrose, oligosaccharides and polysaccharides. […]

[2] = Alpha-1,2 branching activity of GTFJ18 / GTFJ18T1 on a glucan backbone (NMR linkage profile of product); type: biochemical; conditions: for alpha-1,2 linkages in the product of the branching reaction / alpha-1,6 linkages in the product of the branching reaction: 10% (v/v) crude cell extract, 40 g/L sucrose, 22 hours, NMR
Text: The alpha-1,2 branching activities of each enzyme (GTFJ18 or GTFJ18T1) were individually tested on the glucan product of the glucosyltransferase, GTF5604, which is derived from Streptococcus criceti HS-6 (GENBANK® Acc. No. WP_004226213.1, old gi: 357235604) and disclosed in International Pat. Appl. Publ. No. WO2015/183714 (also referred to therein as SG1018 glucosyltransferase or GtfHS6). GTF5604 (SEQ ID NO:33) has 1338 amino acids with the N-terminal 36 amino acids deduced as its signal peptide by the SignalP 4.0 program. The native nucleotide sequence (positions 1289627-1293643 of GENBANK Acc. No. NZ_AEUV02000002.1) encoding full length GTF5604 (SEQ ID NO:33) including its native signal peptide was synthesized by GenScript and cloned into the SpeI and HindIII sites of the replicative Bacillus expression plasmid pHYT (Takara Bio Inc., Otsu, Japan) under the B. subtilis aprE promoter. The construct was first transformed into E. coli DH10B and selected on ampicillin (100 μg/mL) plates. The confirmed clone, pDCQ918, was then transformed into Bacillus subtilis strain BG6006 (amyE::xylRPxylAcomK-ermC, degUHy32, oppA, ΔspoIIE3501, ΔaprE, ΔnprE, Δepr, ΔispA, Δbpr, Δvpr, ΔwprA, Δmpr-ybfJ, ΔnprB) and selected on tetracycline (12.5 μg/mL) plates, after which the transformed strain, termed as SG1018, was grown in LB containing 10 μg/mL tetracycline first, followed by subculturing into Grant's II medium containing 12.5 μg/mL tetracycline and growth at 37° C. for 2-3 days. The cultures were spun at 15,000×g for 30 min at 4° C. and the supernatant was filtered through 0.22-μm filters. A glucan synthesis reaction was set up containing 10% (v/v) of the SG1018 supernatant with 100 g/L sucrose, 10 mM sodium citrate pH 5 and 1 mM CaCl2. […] The glucan synthesis reaction was subjected to heat inactivation at 95° C. for 30 min.
A branching reaction was set up with 70% (v/v) of the heat-inactivated glucan synthesis reaction. The enzyme being tested for branching activity off of the above glucan product, GTFJ18 or GTFJ18T1, was provided as 10% (v/v) of the above-prepared crude cell extract from EC0059 or EC0059T1, respectively, with 40 g/L sucrose. Each branching reaction was incubated at 37° C. or 30° C. for 22 hours and the products were analyzed by HPLC for sucrose consumption and NMR for linkage profile.
NMR data were acquired on an Agilent DD2 spectrometer (Agilent Technologies, Inc., Santa Clara, Calif.) operating at 500 MHz for ^1H using a 5-mm cryogenic triple-resonance pulsed-field gradient probe. Water suppression was obtained by carefully placing the observe transmitter frequency on resonance for the residual water signal in a “presat” experiment, and then using the first slice of a NOESY experiment with a full phase cycle (multiple of 32) and a mix time of 10 ms. One-dimensional ^1H spectra were acquired with a spectral width of 6410 Hz, acquisition time of 5.1 s, 65536 data points, 4 s pre-saturation and a 90-degree observe pulse. Signal averaging typically involved accumulation of 64 scans. Sample temperature was maintained at 25° C.
Liquid samples were prepared by adding either 50 or 100 μL of completed branching reactions to a 5-mm NMR tube along with 60 μL of D2O containing 12.4 mM 4,4-dimethyl-4-silapentane-1-sulfonic acid sodium salt (DSS) as an internal chemical shift reference, and the balance (450 or 400 μL) of D2O for a total volume of […]. The DSS methyl resonance was set to 0 ppm. […]

Molecule | alpha-1,2 branching activity (in words) [1] | alpha-1,2 linkages in the product of the branching reaction [2] [%] | alpha-1,6 linkages in the product of the branching reaction [2] [%] | alpha-1,2 branching activity (in words) ([2]; compared to full length GTFJ18)
GTF9905: Fructobacillus tropaeoli glucosyltransferase, SEQ ID NO:4, mature form positions 36-1672 | significant alpha-1,2 branching activity |  |  | 
GTFJ18: full length glucosyltransferase from Leuconostoc mesenteroides J18, SEQ ID NO:1 (identical to SEQ ID NO:13) |  | 0.6 | 97 | 
B1 |  | 18 | 82 | much higher alpha-1,2 branching activity
